# Experimental data as given in US8192962B2, “Processes for detecting toxic substances” (Daikin Industries, Ltd., priority 2001, dated 2012).
# Tested on: Unknown protein yeast genes
# Test: DNA chip mRNA expression in yeast, unknown protein yeast genes (Table 1)
# Format: cell-based, Saccharomyces cerevisiae S288C
# Outline: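 Chemical exposure: 2 h, log-phase S. cerevisiae S288C, YPD, 25° C., dose set to inhibit growth without death. Profiling: mRNA labeled by reverse transcription with Cy3- or Cy5-dUTP, hybridized to whole-genome array. Output: fluorescence ratio against untreated culture.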
smiles,measurement,setting,value
"[Cl][Cd][Cl] [(2), CdCl2]",The level of expressed mRNA in the presence of chemical substance/The level of expressed mRNA in the absence of chemical substance,"yeast gene YAL053W, incubated two hours with chemical substance",0.9
same,The level of expressed mRNA in the presence of chemical substance/The level of expressed mRNA in the absence of chemical substance,yeast gene YBL048W,7.9
same,The level of expressed mRNA in the presence of chemical substance/The level of expressed mRNA in the absence of chemical substance,yeast gene YBL107C,1.1
same,The level of expressed mRNA in the presence of chemical substance/The level of expressed mRNA in the absence of chemical substance,"yeast gene YDL072C, incubated two hours with chemical substance",1.1
same,The level of expressed mRNA in the presence of chemical substance/The level of expressed mRNA in the absence of chemical substance,"yeast gene YDL204W, incubated two hours with chemical substance",1.9
same,The level of expressed mRNA in the presence of chemical substance/The level of expressed mRNA in the absence of chemical substance,"yeast gene YDL222C, incubated two hours with chemical substance",1.1
same,The level of expressed mRNA in the presence of chemical substance/The level of expressed mRNA in the absence of chemical substance,"yeast gene YDR330W, incubated two hours with chemical substance",1.5
same,The level of expressed mRNA in the presence of chemical substance/The level of expressed mRNA in the absence of chemical substance,"yeast gene YDR411C, incubated two hours with chemical substance",2.8
same,The level of expressed mRNA in the presence of chemical substance/The level of expressed mRNA in the absence of chemical substance,"yeast gene YDR511W, incubated two hours with chemical substance",1.7
same,The level of expressed mRNA in the presence of chemical substance/The level of expressed mRNA in the absence of chemical substance,"yeast gene YDR545W, incubated two hours with chemical substance",1.2
same,The level of expressed mRNA in the presence of chemical substance/The level of expressed mRNA in the absence of chemical substance,"yeast gene YEL001C, incubated two hours with chemical substance",1.0
same,The level of expressed mRNA in the presence of chemical substance/The level of expressed mRNA in the absence of chemical substance,"yeast gene YER004W, incubated two hours with chemical substance",1.5
same,The level of expressed mRNA in the presence of chemical substance/The level of expressed mRNA in the absence of chemical substance,"yeast gene YER035W, incubated two hours with chemical substance",1.6
same,The level of expressed mRNA in the presence of chemical substance/The level of expressed mRNA in the absence of chemical substance,"yeast gene YER079W, incubated two hours with chemical substance",1.6
same,The level of expressed mRNA in the presence of chemical substance/The level of expressed mRNA in the absence of chemical substance,"yeast gene YER106W, incubated two hours with chemical substance",0.7
same,The level of expressed mRNA in the presence of chemical substance/The level of expressed mRNA in the absence of chemical substance,"yeast gene YER158C, incubated two hours with chemical substance",0.9
same,The level of expressed mRNA in the presence of chemical substance/The level of expressed mRNA in the absence of chemical substance,"yeast gene YER163C, incubated two hours with chemical substance",2.4
same,The level of expressed mRNA in the presence of chemical substance/The level of expressed mRNA in the absence of chemical substance,"yeast gene YER175C, incubated two hours with chemical substance",1.2
same,The level of expressed mRNA in the presence of chemical substance/The level of expressed mRNA in the absence of chemical substance,"yeast gene YFL006W, incubated two hours with chemical substance",2.8
same,The level of expressed mRNA in the presence of chemical substance/The level of expressed mRNA in the absence of chemical substance,"yeast gene YFL010C, incubated two hours with chemical substance",4.8
same,The level of expressed mRNA in the presence of chemical substance/The level of expressed mRNA in the absence of chemical substance,yeast gene YFL024C,1.1
same,The level of expressed mRNA in the presence of chemical substance/The level of expressed mRNA in the absence of chemical substance,"yeast gene YFL032W, incubated two hours with chemical substance",1.5
same,The level of expressed mRNA in the presence of chemical substance/The level of expressed mRNA in the absence of chemical substance,"yeast gene YGL037C, incubated two hours with chemical substance",2.7
same,The level of expressed mRNA in the presence of chemical substance/The level of expressed mRNA in the absence of chemical substance,"yeast gene YGL047W, incubated two hours with chemical substance",1.9
same,The level of expressed mRNA in the presence of chemical substance/The level of expressed mRNA in the absence of chemical substance,"yeast gene YGL053W, incubated two hours with chemical substance",1.5
same,The level of expressed mRNA in the presence of chemical substance/The level of expressed mRNA in the absence of chemical substance,yeast gene YGL121C,5.0
same,The level of expressed mRNA in the presence of chemical substance/The level of expressed mRNA in the absence of chemical substance,"yeast gene YGL199C, incubated two hours with chemical substance",1.7
same,The level of expressed mRNA in the presence of chemical substance/The level of expressed mRNA in the absence of chemical substance,"yeast gene YGR101W, incubated two hours with chemical substance",1.3
same,The level of expressed mRNA in the presence of chemical substance/The level of expressed mRNA in the absence of chemical substance,yeast gene YGR110W,3.1
same,The level of expressed mRNA in the presence of chemical substance/The level of expressed mRNA in the absence of chemical substance,"yeast gene YGR130C, incubated two hours with chemical substance",0.7
same,The level of expressed mRNA in the presence of chemical substance/The level of expressed mRNA in the absence of chemical substance,"yeast gene YGR154C, incubated two hours with chemical substance",2.9
same,The level of expressed mRNA in the presence of chemical substance/The level of expressed mRNA in the absence of chemical substance,"yeast gene YGR221C, incubated two hours with chemical substance",2.2
same,The level of expressed mRNA in the presence of chemical substance/The level of expressed mRNA in the absence of chemical substance,"yeast gene YHR138C, incubated two hours with chemical substance",1.8
same,The level of expressed mRNA in the presence of chemical substance/The level of expressed mRNA in the absence of chemical substance,"yeast gene YHR199C, incubated two hours with chemical substance",2.0
same,The level of expressed mRNA in the presence of chemical substance/The level of expressed mRNA in the absence of chemical substance,"yeast gene YIL023C, incubated two hours with chemical substance",1.2
same,The level of expressed mRNA in the presence of chemical substance/The level of expressed mRNA in the absence of chemical substance,"yeast gene YIL041W, incubated two hours with chemical substance",1.2
same,The level of expressed mRNA in the presence of chemical substance/The level of expressed mRNA in the absence of chemical substance,"yeast gene YIL087C, incubated two hours with chemical substance",1.9
same,The level of expressed mRNA in the presence of chemical substance/The level of expressed mRNA in the absence of chemical substance,"yeast gene YJL057C, incubated two hours with chemical substance",1.2
same,The level of expressed mRNA in the presence of chemical substance/The level of expressed mRNA in the absence of chemical substance,"yeast gene YJL066C, incubated two hours with chemical substance",1.2
same,The level of expressed mRNA in the presence of chemical substance/The level of expressed mRNA in the absence of chemical substance,"yeast gene YJL082W, incubated two hours with chemical substance",0.8
same,The level of expressed mRNA in the presence of chemical substance/The level of expressed mRNA in the absence of chemical substance,"yeast gene YJL151C, incubated two hours with chemical substance",2.4
same,The level of expressed mRNA in the presence of chemical substance/The level of expressed mRNA in the absence of chemical substance,"yeast gene YJL152W, incubated two hours with chemical substance",1.5
same,The level of expressed mRNA in the presence of chemical substance/The level of expressed mRNA in the absence of chemical substance,"yeast gene YJL161W, incubated two hours with chemical substance",2.2
same,The level of expressed mRNA in the presence of chemical substance/The level of expressed mRNA in the absence of chemical substance,"yeast gene YJL171C, incubated two hours with chemical substance",0.7
same,The level of expressed mRNA in the presence of chemical substance/The level of expressed mRNA in the absence of chemical substance,"yeast gene YJR008W, incubated two hours with chemical substance",1.5
same,The level of expressed mRNA in the presence of chemical substance/The level of expressed mRNA in the absence of chemical substance,"yeast gene YJR054W, incubated two hours with chemical substance",0.9
same,The level of expressed mRNA in the presence of chemical substance/The level of expressed mRNA in the absence of chemical substance,yeast gene YKL071W,3.8
same,The level of expressed mRNA in the presence of chemical substance/The level of expressed mRNA in the absence of chemical substance,"yeast gene YKL086W, incubated two hours with chemical substance",1.1
same,The level of expressed mRNA in the presence of chemical substance/The level of expressed mRNA in the absence of chemical substance,"yeast gene YKL151C, incubated two hours with chemical substance",3.1
same,The level of expressed mRNA in the presence of chemical substance/The level of expressed mRNA in the absence of chemical substance,"yeast gene YKL153W, incubated two hours with chemical substance",1.4
